ChEMBL document CHEMBL1201862, “PubChem BioAssay data set” (2004)
Counter-ions that a name gives are not always drawn.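 Values below derive from 48-hour exposures of cells grown in 96-well plates, with endpoints linearly interpolated between the two concentrations bracketing the appropriate inhibition level. At the GI50, growth is halved.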 The source made the active and inactive calls. No stated cut-off is given here; in the data, active = GI50 up to about 1.1 µM and inactive = higher.

Columns and labels:
Assay in all cases: NCI-60 cell line screen, 48 h
XF498 = tested on: XF498
DMS-273 = tested on: DMS-273
HOP-18 = tested on: HOP-18
DMS-114 = tested on: DMS-114
DLD-1 = tested on: DLD-1
M19-MEL = tested on: M19-MEL
SNB-78 = tested on: SNB-78
KM-20L2 = tested on: KM-20L2
RXF 631 = tested on: RXF 631

| SMILES | GI50 (XF498) | GI50 (DMS-273) | GI50 (HOP-18) | GI50 (DMS-114) | GI50 (DLD-1) | GI50 (M19-MEL) | GI50 (SNB-78) | GI50 (KM-20L2) | GI50 (RXF 631) |
| --- | --- | --- | --- | --- | --- | --- | --- | --- | --- |
| CCN1CCC(O)(c2ccccc2)C(C(=O)c2ccccc2)C1 (stereo not drawn) | 16.3 µM (inactive) | > 94.4 µM (inactive) | 14.7 µM (inactive) | 29.9 µM (inactive) | 19.4 µM (inactive) | 26.7 µM (inactive) | 26.7 µM (inactive) | 32 µM (inactive) |  |
| CN(C)/C(=N/C(=O)Nc1ccccc1)SCc1ccccc1 | 6.43 µM (inactive) | > 100 µM (inactive) | 64.9 µM (inactive) | 67.5 µM (inactive) | 65.3 µM (inactive) | > 100 µM (inactive) | > 100 µM (inactive) |  |  |
| CC1=NN(C(=O)CC(=O)Nc2ccccc2F)C(=O)C1/N=N/c1ccccc1[N+](=O)[O-] (stereo not drawn) | > 100 µM (inactive) | 49.9 µM (inactive) |  | 57.9 µM (inactive) | 83 µM (inactive) | 18.7 µM (inactive) | 87.3 µM (inactive) | > 100 µM (inactive) |  |
| NNC(=O)C1CCC(=O)N1S(=O)(=O)c1ccccc1 (stereo not drawn) | > 100 µM (inactive) | > 100 µM (inactive) |  | > 100 µM (inactive) | > 100 µM (inactive) | > 100 µM (inactive) | > 100 µM (inactive) | > 100 µM (inactive) |  |
| Cc1cc2c(=O)c(C)n[nH]c2c(C#N)c1C | > 100 µM (inactive) | > 100 µM (inactive) | > 100 µM (inactive) |  | > 100 µM (inactive) | > 100 µM (inactive) |  | > 100 µM (inactive) | > 100 µM (inactive) |
| C[C@H]1C[C@@H]2[C@H]([C@@H](O)C[C@@]3(C)[C@H]2CC[C@]3(O)C(=O)CO)[C@@]2(C)C=CC(=O)C=C12 [METHYLPREDNISOLONE] |  | > 100 µM (inactive) | > 100 µM (inactive) | > 100 µM (inactive) | > 100 µM (inactive) | > 100 µM (inactive) |  | > 100 µM (inactive) |  |
| CN(C)CC1CCC(CN(C)C)C1=O (stereo not drawn) | 5.69 µM (inactive) | 17.1 µM (inactive) | 18.8 µM (inactive) | 5.92 µM (inactive) | 2.05 µM (inactive) | 3.43 µM (inactive) | 5.83 µM (inactive) | 17.4 µM (inactive) |  |
| CC1(Cl)C(=O)NC(=O)N(C2CC(N=[N+]=[N-])C(CO)O2)C1N=[N+]=[N-] (stereo not drawn) | > 100 µM (inactive) | > 100 µM (inactive) |  | > 100 µM (inactive) | > 100 µM (inactive) | > 100 µM (inactive) |  | > 100 µM (inactive) | > 100 µM (inactive) |
| O=C1OC(c2ccccc2)=N/C1=C/N1CCCC1C(=O)O (stereo not drawn) | > 100 µM (inactive) | > 100 µM (inactive) | > 100 µM (inactive) | > 100 µM (inactive) | > 100 µM (inactive) | > 100 µM (inactive) | > 100 µM (inactive) | > 100 µM (inactive) | > 100 µM (inactive) |
| CNC(C)Cc1ccccc1OC (stereo not drawn) [METHOXYPHENAMINE HYDROCHLORIDE] | > 100 µM (inactive) | > 100 µM (inactive) | > 100 µM (inactive) | > 100 µM (inactive) | > 100 µM (inactive) |  | > 100 µM (inactive) | > 100 µM (inactive) | > 100 µM (inactive) |
| CO[C@@H]1C=C[C@@]23c4cc5c(cc4CN(C[C@@H]2O)[C@H]3C1)OCO5 [(+)-HAEMANTHAMINE] | 16.7 µM (inactive) |  | 21.8 µM (inactive) | 79.6 µM (inactive) | 15.3 µM (inactive) | 16.6 µM (inactive) | 52.5 µM (inactive) | 11.7 µM (inactive) |  |
| C=C1CN2CCc3c([nH]c4ccccc34)C2CC1CC(=O)N(C)C (stereo not drawn) | > 309 µM (inactive) | > 309 µM (inactive) | > 309 µM (inactive) | > 309 µM (inactive) | > 309 µM (inactive) | > 309 µM (inactive) |  | > 309 µM (inactive) |  |
| O=C(O)CC12C3C4C5C3C1C5C42 (stereo not drawn) | > 100 µM (inactive) | > 100 µM (inactive) |  | > 100 µM (inactive) | > 100 µM (inactive) | > 100 µM (inactive) | > 100 µM (inactive) | > 100 µM (inactive) |  |
| C/C(=N\NC(=S)N1CCC1)c1ccccn1 | 0.457 µM (active) | 0.01 µM (active) | 0.929 µM (active) | 0.01 µM (active) | 0.01 µM (active) | 0.0815 µM (active) | 2.2 µM (inactive) | 0.01 µM (active) | < 0.0262 µM (active) |
| Cc1c2cc[n+](C)cc2c(C)c2c1oc1ccccc12 |  | 3.57 µM (inactive) | 6.82 µM (inactive) | 1.31 µM (inactive) | 8.57 µM (inactive) | 2.64 µM (inactive) | 4.02 µM (inactive) | 9.98 µM (inactive) |  |
| NCC1(N2CCOCC2)C2CCCC21CNc1ccccc1 (stereo not drawn) | 69.8 µM (inactive) | > 100 µM (inactive) | > 100 µM (inactive) | > 100 µM (inactive) | > 100 µM (inactive) | > 100 µM (inactive) | > 100 µM (inactive) |  | > 100 µM (inactive) |
| S=c1sc2sc(=S)sc2s1 |  | > 100 µM (inactive) | > 100 µM (inactive) |  | 37.1 µM (inactive) | 28.6 µM (inactive) | 54.5 µM (inactive) | 70.3 µM (inactive) | 18.7 µM (inactive) |
| O=C/C1=C/C2=Cc3ccccc3C=C(/C=C(/C=O)C1)C2 | 54.5 µM (inactive) | 34.2 µM (inactive) |  | 38.3 µM (inactive) | 38.4 µM (inactive) | 53.8 µM (inactive) | 52.7 µM (inactive) | > 100 µM (inactive) |  |
| CCN(CC)c1c(C)nnn1C1OC(COC(C)=O)C(OC(C)=O)C(OC(C)=O)C1OC(C)=O (stereo not drawn) |  | > 10 µM (inactive) | > 100 µM (inactive) | > 100 µM (inactive) | > 100 µM (inactive) | > 100 µM (inactive) | > 100 µM (inactive) | > 100 µM (inactive) | > 100 µM (inactive) |
| Cc1ccc(C(=O)Oc2ccccc2)cc1/N=N/N(C)C |  | 61.9 µM (inactive) |  |  | > 100 µM (inactive) | > 100 µM (inactive) | > 100 µM (inactive) | 38.3 µM (inactive) |  |
| CCOC(=O)C(CNc1ccc(O)cc1)NC(=O)c1ccccc1 (stereo not drawn) | > 100 µM (inactive) | 65 µM (inactive) | > 100 µM (inactive) | > 79.8 µM (inactive) | > 100 µM (inactive) | 47 µM (inactive) | > 100 µM (inactive) | > 100 µM (inactive) |  |
| N#C/C(=C\c1cc(O)c(O)c(O)c1)C(N)=O | > 100 µM (inactive) | > 100 µM (inactive) |  | > 100 µM (inactive) | > 100 µM (inactive) | 45.3 µM (inactive) | > 100 µM (inactive) | 74.1 µM (inactive) | > 100 µM (inactive) |
| CSC1=Nc2ccccc2N=C(c2ccc(Cl)cc2)C1 | 36.5 µM (inactive) |  | 0.0877 µM (active) |  | 25.9 µM (inactive) | 36.3 µM (inactive) | 52.5 µM (inactive) | 35.5 µM (inactive) |  |
| Cn1cc(C(=O)c2ccccc2)c2ccccc2c1=O | > 100 µM (inactive) | > 100 µM (inactive) |  | > 100 µM (inactive) | > 100 µM (inactive) | > 100 µM (inactive) |  |  |  |
